Measurements as given in ChEMBL document CHEMBL1201862, “PubChem BioAssay data set” (2004).
The source made the active and inactive calls.

What was measured:
[1] = A Cell Based Assay for the Identification of Probe candidate Compounds with Anti- Venezuelan Equine Encephalitis virus. [Related pubchem assays: 2409, 2419, 1621, 2238, 2405, 2024, 2065, 2402, 2414, 1635, 1650, 2244 ]; type: functional
[2] = tested on: Vero; experiment: Vero E6 cell cytotoxicity, SAR follow-up, cytotoxicity control for West Nile virus antiviral project, synthesized analogs (AID 2244); type: functional; conditions: Chlorocebus sabaeus
[3] = tested on: Vero; experiment: cytotoxicity of synthesized analogs in Vero 76, SAR follow-up, cytotoxicity control for West Nile virus antiviral project, Vero 76 cells (AID 2414); type: functional; conditions: Chlorocebus sabaeus
[4] = tested on: Vero; experiment: cytotoxicity of synthesized analogs in Vero cells, SAR follow-up, cytotoxicity control for West Nile virus antiviral project, cell-based, set II (AID 2402); type: functional; conditions: Chlorocebus sabaeus
[5] = tested on: HEK293; experiment: PMA/Ionomycin induced NF-kB luciferase assay in 293- NF-kB-Luc stable cells. [Related pubchem assays: 1299, 1270, 1295, 1375, 1287, 1281, 1293, 1291, 1289, 1280, 465, 1364, 1282, 1372, 1365, 1370, 1367, 1366, 1269, 1373, 1292, 1290, 1302, 1371, 1283, 1271, 1294, 1374, 1368, 1369 ]; type: functional, cell-based; conditions: Homo sapiens
[6] = tested on: HEK293; experiment: TNF Induced NF-kB Luciferase in 293-NF-kB-Luc Stable Cells. [Related pubchem assays: 1266, 1299, 1269, 1373, 1292, 1290, 1302, 1371, 1283, 1270, 1295, 1271, 1375, 1294, 1374, 1281, 1293, 1291, 1289, 1280, 465, 1368, 1364, 1282, 1372, 1365, 1369, 1370, 1367, 1366 ]; type: functional, cell-based; conditions: Homo sapiens
[7] = biological target: Luciferin 4-monooxygenase (Photinus pyralis, UniProt P08659); experiment: In vitro luciferase assay using purified luciferase. [Related pubchem assays: 1299, 1270, 1295, 1375, 1287, 1281, 1293, 1291, 1289, 1280, 465, 1364, 1282, 1372, 1365, 1370, 1367, 1366, 1266, 1373, 1292, 1290, 1302, 1371, 1283, 1271, 1294, 1374, 1368, 1369 ]
[8] = tested on: HEK293; experiment: Cytotoxicity assay in HEK293 cells. [Related pubchem assays (depositor defined):AID1266, AID1269, AID1270, AID1271, AID1280, AID1281, AID1282, AID1283, AID1287, AID1289, AID1290, AID1291, AID1292, AID1293, AID1294, AID1295, AID1299, AID1302, AID1364, AID1365, AID1366, AID1367, AID1369, AID1370, AID1371, AID1372, AID1373, AID1374, AID1375, AID1384 …; type: functional, cell-based; conditions: Homo sapiens
[9] = tested on: HEK293; experiment: PMA/Ionomycin-induced IL-8 production in HEK293- NF-kB-Luc stable cells. [Related pubchem assays: 1299, 1295, 1375, 1287, 1281, 1293, 1291, 1289, 1280, 465, 1364, 1282, 1372, 1365, 1367, 1366, 1266, 1269, 1373, 1292, 1290, 1302, 1371, 1283, 1271, 1294, 1374, 1368, 1369 ]; type: functional, cell-based; conditions: Homo sapiens
[10] = biological target: T1, Hexokinase HKDC1 (Homo sapiens, UniProt Q2TB90); experiment: SAR analysis of small molecule inhibitors of hexokinase domain containing I (HKDC1). [Related pubchem assays (depositor defined):AID493160, AID493190]; type: functional
T1 sequence (Q2TB90 whole entry): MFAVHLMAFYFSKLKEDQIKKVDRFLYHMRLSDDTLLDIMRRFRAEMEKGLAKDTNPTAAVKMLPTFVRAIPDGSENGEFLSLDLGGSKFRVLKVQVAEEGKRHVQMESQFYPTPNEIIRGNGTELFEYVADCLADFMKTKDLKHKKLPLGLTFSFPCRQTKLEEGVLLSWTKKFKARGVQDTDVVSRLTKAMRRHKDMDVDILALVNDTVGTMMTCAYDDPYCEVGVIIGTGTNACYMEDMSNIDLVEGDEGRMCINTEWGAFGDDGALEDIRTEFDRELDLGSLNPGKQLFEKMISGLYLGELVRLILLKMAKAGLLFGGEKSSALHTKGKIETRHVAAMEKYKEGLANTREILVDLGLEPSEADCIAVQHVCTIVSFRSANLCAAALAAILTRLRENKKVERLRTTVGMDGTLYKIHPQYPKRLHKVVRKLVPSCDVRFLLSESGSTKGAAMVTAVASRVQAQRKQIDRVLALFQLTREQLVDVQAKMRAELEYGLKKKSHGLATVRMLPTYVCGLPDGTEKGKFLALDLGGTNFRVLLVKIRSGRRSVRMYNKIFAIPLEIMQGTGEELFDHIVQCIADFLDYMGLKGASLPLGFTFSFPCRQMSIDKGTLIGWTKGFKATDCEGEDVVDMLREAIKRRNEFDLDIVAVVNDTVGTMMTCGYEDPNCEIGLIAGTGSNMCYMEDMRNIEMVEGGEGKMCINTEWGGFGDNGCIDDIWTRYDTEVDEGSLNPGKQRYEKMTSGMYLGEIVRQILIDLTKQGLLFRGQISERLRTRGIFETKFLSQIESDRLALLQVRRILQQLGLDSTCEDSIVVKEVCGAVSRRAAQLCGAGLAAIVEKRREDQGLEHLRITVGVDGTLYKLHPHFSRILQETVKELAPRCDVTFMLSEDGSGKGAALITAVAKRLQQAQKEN

[11] = biological target: T1, Hexokinase HKDC1; experiment: HKDC1 hexokinase inhibitors, dose response, biochemical, W721R variant (AID 504729); type: functional
[12] = biological target: T2, Hexokinase-1 (Homo sapiens, UniProt P19367); experiment: SAR analysis of small molecule inhibitors of hexokinase domain containing I (HKDC1) in the hexokinase 1 selectivity assay. [Related pubchem assays (depositor defined):AID493160, AID493190]; type: functional
T2 sequence (P19367 whole entry): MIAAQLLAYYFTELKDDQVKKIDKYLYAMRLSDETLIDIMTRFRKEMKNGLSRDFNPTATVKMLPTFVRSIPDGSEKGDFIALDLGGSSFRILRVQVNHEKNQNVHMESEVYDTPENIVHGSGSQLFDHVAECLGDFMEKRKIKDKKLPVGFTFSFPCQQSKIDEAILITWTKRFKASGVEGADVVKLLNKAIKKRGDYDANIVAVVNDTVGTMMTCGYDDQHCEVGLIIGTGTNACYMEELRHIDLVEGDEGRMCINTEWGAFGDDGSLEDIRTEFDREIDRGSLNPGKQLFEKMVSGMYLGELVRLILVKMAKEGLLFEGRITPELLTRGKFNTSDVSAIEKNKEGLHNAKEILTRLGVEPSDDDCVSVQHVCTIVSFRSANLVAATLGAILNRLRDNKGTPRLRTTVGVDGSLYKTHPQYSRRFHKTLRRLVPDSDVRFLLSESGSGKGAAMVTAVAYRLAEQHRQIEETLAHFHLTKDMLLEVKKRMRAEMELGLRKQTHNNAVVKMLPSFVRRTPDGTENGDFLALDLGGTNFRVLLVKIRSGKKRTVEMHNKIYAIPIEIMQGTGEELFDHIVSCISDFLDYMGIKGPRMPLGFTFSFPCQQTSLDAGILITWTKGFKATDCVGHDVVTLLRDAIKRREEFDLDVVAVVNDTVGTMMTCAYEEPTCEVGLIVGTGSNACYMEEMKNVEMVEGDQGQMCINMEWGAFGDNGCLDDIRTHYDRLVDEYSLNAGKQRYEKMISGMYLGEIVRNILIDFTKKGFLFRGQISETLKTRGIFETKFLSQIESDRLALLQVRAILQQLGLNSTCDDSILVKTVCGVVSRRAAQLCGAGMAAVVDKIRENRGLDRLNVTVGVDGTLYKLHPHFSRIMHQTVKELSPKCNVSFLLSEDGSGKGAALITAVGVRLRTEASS

[13] = biological target: X-box-binding protein 1 (Homo sapiens, UniProt P17861); type: functional, Cricetulus griseus;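 further: confirmatory dose-response counter-screen serving a CHOP assay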
[14] = biological target: Scavenger receptor class B member 1 (Mus musculus, UniProt Q61009); experiment: inhibitors of SR-BI mediated HDL lipid uptake, dose response, ldlA[mSR-BI] cells, fluorescence, cherry pick (AID 493194); type: functional, cell-based;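 further: cellular uptake of fluorescent DiI-labeled HDL measured as cell fluorescence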
[15] = biological target: T3, Tyrosine-protein phosphatase non-receptor type 7 (Homo sapiens, UniProt P35236); type: functional
T3 sequence (P35236 whole entry): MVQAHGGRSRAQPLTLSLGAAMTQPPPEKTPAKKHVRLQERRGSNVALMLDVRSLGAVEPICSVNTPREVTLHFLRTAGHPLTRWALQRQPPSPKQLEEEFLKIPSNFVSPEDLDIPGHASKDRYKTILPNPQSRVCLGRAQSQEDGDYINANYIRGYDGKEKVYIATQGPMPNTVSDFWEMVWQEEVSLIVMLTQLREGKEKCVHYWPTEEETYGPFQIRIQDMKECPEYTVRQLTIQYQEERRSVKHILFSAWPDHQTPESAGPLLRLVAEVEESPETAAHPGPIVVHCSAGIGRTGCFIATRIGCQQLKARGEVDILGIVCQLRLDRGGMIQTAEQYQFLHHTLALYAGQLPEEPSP

[16] = biological target: T4, Dual specificity protein phosphatase 6 (Rattus norvegicus, UniProt Q64346); type: functional
T4 sequence (Q64346 whole entry): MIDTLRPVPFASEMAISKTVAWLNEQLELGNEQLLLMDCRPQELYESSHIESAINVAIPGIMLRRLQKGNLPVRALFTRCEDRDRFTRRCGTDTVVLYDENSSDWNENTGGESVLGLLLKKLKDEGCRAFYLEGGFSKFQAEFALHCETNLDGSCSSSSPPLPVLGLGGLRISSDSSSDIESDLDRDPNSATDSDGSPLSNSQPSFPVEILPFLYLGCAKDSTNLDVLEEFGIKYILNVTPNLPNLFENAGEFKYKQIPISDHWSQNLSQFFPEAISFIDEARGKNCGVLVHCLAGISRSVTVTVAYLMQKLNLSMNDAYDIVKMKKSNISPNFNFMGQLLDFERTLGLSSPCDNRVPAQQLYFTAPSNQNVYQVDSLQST

[17] = biological target: T4, Dual specificity protein phosphatase 6
[18] = biological target: Glyceraldehyde-3-phosphate dehydrogenase (Homo sapiens, UniProt P04406)
[19] = biological target: Wee1-like protein kinase (Homo sapiens, UniProt P30291); experiment: G2/M cell cycle arrest in HeLa, late-stage follow-up, mechanism study for Wee1 degradation inhibitor project, FACS, panel member Wee1 Degradation (AID 2088)
[20] = biological target: G2/mitotic-specific cyclin-B1 (Homo sapiens, UniProt P14635); experiment: G2/M cell cycle arrest in HeLa, late-stage follow-up, mechanism study for Wee1 degradation inhibitor project, FACS, panel member Cyclin B Degradation (AID 2088)
[21] = biological target: T5, Voltage-gated N-type calcium channel alpha-1B subunit/Amyloid beta A4 precursor protein-binding family A member 1 (Homo sapiens, UniProt Q00975+Q02410); experiment: disruptors of Mint-PDZ/N-type channel peptide interaction – biochemical, HTRF, SAR follow-up (AID 2489); type: functional
[22] = biological target: T5, Voltage-gated N-type calcium channel alpha-1B subunit/Amyloid beta A4 precursor protein-binding family A member 1; experiment: disruptors of Mint-PDZ/N-type channel peptide interaction – biochemical, HTRF, set 2, SAR follow-up (AID 434980); type: functional

T5 sequence (Q00975 whole entry): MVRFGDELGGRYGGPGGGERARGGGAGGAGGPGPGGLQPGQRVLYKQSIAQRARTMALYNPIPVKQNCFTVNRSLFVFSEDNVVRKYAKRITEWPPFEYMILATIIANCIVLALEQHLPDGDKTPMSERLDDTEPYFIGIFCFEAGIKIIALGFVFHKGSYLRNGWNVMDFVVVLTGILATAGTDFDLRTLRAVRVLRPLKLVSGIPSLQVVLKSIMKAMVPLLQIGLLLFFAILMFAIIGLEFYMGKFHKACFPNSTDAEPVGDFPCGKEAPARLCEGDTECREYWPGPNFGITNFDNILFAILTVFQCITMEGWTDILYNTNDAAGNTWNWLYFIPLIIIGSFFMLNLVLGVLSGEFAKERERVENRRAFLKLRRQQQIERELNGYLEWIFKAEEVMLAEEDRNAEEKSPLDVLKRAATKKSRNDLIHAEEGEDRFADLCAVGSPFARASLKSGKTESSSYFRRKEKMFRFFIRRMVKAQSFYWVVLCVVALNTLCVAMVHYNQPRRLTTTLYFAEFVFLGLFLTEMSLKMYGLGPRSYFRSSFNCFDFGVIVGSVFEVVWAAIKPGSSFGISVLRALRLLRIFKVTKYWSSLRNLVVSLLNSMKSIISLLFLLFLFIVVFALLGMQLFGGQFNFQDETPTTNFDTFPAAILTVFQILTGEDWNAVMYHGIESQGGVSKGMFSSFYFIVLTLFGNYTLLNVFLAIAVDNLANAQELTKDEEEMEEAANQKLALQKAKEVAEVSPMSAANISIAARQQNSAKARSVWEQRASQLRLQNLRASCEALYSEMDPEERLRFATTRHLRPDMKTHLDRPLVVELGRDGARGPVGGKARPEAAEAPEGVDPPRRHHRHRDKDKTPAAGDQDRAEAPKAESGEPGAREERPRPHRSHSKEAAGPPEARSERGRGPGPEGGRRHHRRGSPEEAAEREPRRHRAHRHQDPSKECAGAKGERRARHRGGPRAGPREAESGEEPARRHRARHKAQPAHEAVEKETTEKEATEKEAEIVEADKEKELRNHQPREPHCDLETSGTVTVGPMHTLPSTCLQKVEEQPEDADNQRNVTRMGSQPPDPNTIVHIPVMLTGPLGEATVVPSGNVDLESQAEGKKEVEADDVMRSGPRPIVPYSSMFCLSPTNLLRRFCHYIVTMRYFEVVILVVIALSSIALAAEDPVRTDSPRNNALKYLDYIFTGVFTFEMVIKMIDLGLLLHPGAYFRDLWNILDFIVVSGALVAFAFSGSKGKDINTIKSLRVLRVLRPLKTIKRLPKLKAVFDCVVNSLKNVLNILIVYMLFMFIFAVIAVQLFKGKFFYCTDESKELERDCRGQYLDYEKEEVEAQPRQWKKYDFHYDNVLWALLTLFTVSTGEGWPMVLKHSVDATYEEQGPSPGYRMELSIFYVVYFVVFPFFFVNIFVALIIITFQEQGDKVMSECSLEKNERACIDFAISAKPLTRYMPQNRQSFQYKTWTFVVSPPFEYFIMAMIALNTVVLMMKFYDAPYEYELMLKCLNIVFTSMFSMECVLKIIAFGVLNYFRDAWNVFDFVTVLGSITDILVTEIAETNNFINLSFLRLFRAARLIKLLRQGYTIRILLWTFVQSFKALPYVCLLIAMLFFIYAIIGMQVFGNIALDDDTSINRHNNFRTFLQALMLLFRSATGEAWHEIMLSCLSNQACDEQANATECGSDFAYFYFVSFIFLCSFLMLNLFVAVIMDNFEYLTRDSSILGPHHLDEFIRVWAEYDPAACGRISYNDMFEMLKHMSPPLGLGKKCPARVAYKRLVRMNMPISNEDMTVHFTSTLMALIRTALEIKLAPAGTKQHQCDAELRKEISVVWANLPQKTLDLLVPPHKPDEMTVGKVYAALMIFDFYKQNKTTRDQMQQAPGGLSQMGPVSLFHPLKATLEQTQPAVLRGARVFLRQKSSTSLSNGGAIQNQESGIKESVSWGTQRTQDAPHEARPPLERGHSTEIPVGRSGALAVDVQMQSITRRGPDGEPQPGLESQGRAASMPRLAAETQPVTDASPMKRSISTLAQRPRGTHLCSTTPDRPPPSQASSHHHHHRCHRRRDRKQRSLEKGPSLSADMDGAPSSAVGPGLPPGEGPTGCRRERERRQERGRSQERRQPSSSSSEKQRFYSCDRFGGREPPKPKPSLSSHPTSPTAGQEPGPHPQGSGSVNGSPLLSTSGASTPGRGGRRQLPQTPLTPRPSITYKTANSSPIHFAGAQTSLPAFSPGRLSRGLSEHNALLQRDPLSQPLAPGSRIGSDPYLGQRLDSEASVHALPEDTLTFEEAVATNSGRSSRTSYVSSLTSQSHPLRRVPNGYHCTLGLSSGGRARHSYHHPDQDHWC
T5 sequence (Q02410 whole entry): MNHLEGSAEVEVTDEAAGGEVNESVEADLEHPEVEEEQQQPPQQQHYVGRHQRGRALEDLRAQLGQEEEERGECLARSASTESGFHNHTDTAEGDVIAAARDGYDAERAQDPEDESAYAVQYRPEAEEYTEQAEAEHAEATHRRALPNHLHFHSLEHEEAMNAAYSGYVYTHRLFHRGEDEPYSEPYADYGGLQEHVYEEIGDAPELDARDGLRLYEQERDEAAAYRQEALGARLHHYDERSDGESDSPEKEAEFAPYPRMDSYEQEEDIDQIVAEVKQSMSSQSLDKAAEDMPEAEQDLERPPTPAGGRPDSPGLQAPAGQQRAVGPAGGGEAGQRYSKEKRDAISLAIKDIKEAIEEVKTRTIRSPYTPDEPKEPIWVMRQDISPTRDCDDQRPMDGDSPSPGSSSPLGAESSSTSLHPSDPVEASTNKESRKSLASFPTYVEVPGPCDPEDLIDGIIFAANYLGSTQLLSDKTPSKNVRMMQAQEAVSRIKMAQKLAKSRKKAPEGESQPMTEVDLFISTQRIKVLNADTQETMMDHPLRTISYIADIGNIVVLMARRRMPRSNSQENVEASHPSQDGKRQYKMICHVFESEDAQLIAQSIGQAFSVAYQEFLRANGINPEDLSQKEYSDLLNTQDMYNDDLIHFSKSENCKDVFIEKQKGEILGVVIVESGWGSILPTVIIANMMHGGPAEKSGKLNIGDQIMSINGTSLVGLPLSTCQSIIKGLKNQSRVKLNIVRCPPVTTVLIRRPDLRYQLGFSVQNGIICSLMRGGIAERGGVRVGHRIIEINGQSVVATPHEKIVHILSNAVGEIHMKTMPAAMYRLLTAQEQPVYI
Chain of Glyceraldehyde-3-phosphate dehydrogenase (P04406 whole entry): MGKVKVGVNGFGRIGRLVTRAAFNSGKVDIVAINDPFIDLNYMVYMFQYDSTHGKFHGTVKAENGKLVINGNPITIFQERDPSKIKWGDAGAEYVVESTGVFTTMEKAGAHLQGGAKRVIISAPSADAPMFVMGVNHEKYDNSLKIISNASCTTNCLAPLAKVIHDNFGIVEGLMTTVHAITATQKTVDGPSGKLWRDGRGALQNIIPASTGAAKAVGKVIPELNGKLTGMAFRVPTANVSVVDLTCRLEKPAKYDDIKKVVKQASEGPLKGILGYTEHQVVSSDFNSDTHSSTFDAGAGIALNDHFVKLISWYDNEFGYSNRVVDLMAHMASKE
Chain of Scavenger receptor class B member 1 (Q61009 whole entry): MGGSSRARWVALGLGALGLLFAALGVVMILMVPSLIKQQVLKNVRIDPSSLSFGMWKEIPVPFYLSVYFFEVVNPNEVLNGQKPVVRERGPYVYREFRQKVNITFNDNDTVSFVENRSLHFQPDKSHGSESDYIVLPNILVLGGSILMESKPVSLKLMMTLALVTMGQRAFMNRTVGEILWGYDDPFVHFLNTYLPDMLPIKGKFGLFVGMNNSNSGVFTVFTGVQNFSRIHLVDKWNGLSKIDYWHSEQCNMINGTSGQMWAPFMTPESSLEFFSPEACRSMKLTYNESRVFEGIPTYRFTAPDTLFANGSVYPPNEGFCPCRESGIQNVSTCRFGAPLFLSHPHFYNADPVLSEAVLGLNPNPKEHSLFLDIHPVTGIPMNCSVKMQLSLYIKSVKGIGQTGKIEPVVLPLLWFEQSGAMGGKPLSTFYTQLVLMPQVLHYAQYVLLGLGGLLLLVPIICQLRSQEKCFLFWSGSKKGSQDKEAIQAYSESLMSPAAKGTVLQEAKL
Chain of G2/mitotic-specific cyclin-B1 (P14635 whole entry): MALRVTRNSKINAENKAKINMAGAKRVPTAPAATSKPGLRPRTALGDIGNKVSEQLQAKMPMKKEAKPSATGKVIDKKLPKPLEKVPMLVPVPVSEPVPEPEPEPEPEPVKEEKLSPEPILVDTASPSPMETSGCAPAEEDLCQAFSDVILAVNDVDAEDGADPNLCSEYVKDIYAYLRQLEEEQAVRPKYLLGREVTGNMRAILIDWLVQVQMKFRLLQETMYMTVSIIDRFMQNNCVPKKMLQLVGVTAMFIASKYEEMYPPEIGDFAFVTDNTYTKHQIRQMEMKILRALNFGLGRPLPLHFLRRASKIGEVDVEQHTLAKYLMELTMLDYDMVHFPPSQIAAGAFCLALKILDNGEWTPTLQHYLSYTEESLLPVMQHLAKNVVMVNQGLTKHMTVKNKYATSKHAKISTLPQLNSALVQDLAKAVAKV
Chain of X-box-binding protein 1 (P17861 whole entry): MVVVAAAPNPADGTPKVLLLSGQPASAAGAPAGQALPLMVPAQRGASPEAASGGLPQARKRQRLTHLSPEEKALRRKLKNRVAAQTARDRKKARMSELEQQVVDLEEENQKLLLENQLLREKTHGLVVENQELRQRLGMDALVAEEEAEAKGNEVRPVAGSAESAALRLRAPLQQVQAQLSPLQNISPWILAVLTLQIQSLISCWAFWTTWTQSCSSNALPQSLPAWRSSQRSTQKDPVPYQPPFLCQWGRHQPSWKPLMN

SMILES: COc1ccc(-c2csc(N(C(=O)c3ccccc3Cl)C(C)C)n2)cc1
- IC50 [1]: > 66.6 µM (active)
- CC50 [2]: 22.4 µM (active)
- CC50 [3]: 35.5 µM (active)
- CC50 [4]: 13.5 µM (active)

SMILES: O=C(NC1CCCCCC1)c1ccc([N+](=O)[O-])o1
- EC50 [5]: 3.29 µM (active)
- EC50 [6]: > 8 µM (not active)
- EC50 [7]: > 8 µM (not active)
- EC50 [8]: > 8 µM (inactive)
- EC50 [9]: 4.02 µM (not active)

SMILES: Cc1cc2nnc(SCC(=O)Nc3cc(S(=O)(=O)N4CCOCC4)ccc3Cl)n2c2ccccc12
- IC50 [10]: 3.39 µM (active)
- IC50 [11]: 3.16 µM (active)
- IC50 [12]: 3.76 µM (active)

SMILES: Cc1nn(-c2ccc(C(F)(F)F)cn2)c(C)c1Oc1ccccc1O
- Absolute IC50 (XBP1) [13]: 10 µM

SMILES: COC(=O)c1cn(C(=O)c2cccc3ccccc23)c2ccccc12
- AC50 [14]: 25.1 µM (active)

SMILES: O=C(O)C1Nc2c(F)cccc2C2C=CCC12 (configuration not stated)
- IC50 [15]: 5.4 µM (active)
- IC50 [16]: 17.2 µM (active)
- IC50 [17]: 19.8 µM (active)
- IC50 [18]: > 100 µM (not active)

SMILES: Cn1c(=O)cc(OCCCC(=O)Nc2cccc(C(F)(F)F)c2)c2ccccc21
- EC50 [19]: > 49.7 µM (inactive)
- EC50 [20]: > 49.7 µM (inactive)

SMILES: O=C(NCCc1ccccc1)c1cc(-c2ccco2)nc2ccccc12
- IC50 [21]: > 56.8 µM (inactive)
- IC50 [22]: > 56.8 µM (inactive)
